Experimental data: PubChem BioAssay (NCI)
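Dose response: 5 concentrations. Exposure: 48 h. Format: 96-well plates. Endpoint: linear interpolation; highest concentration if not reached. The concentration for 50% growth inhibition is given as GI50. At the TGI there is no net growth.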

Legend:
Experiment in all cases: NCI tumour cell line growth inhibition, 48 h
COLO 205 colon = system: COLO 205 colon
UACC-62 melanoma = system: UACC-62 melanoma
KM12 colon = system: KM12 colon
SK-MEL-28 melanoma = system: SK-MEL-28 melanoma
HCT-15 colon = system: HCT-15 colon
NCI/ADR-RES ovarian = system: NCI/ADR-RES ovarian
UACC-257 melanoma = system: UACC-257 melanoma
SK-OV-3 ovarian = system: SK-OV-3 ovarian
EKVX NSCLC = system: EKVX NSCLC
SK-MEL-5 melanoma = system: SK-MEL-5 melanoma

Row | Structure (SMILES) | TGI (COLO 205 colon) [µM] | TGI (UACC-62 melanoma) [µM] | TGI (KM12 colon) [µM] | TGI (SK-MEL-28 melanoma) [µM] | TGI (HCT-15 colon) [µM] | TGI (NCI/ADR-RES ovarian) [µM] | TGI (UACC-257 melanoma) [µM] | TGI (SK-OV-3 ovarian) [µM] | TGI (EKVX NSCLC) [µM] | TGI (SK-MEL-5 melanoma) [µM] | GI50 (COLO 205 colon) [nM] | GI50 (UACC-62 melanoma) [nM] | GI50 (KM12 colon) [nM] | GI50 (HCT-15 colon) [nM] | GI50 (NCI/ADR-RES ovarian) [nM] | GI50 (SK-OV-3 ovarian) [nM] | GI50 (EKVX NSCLC) [nM] | GI50 (SK-MEL-5 melanoma) [nM]
1 | COc1c(OC/C=C(\C)CCC=C(C)C)ccc2ccc(=O)oc12 | > 100 | > 100 | > 100 | > 100 | > 100 | > 100 | > 100 | > 100 | > 100 | > 100 |  |  |  |  |  |  |  | 
2 | O=C(Nc1ccc(Cl)c(Cl)c1)N1N=C2c3ccccc3CCC2C1c1ccc(Cl)cc1 (centres undefined) | > 100 | > 100 | > 100 | > 100 | > 100 | > 100 | > 100 | > 100 | > 100 | > 100 |  |  |  |  |  |  |  | 
3 | COc1cc(/C=C/C(=O)CC(=O)/C=C/c2ccc(O)c(OC)c2)ccc1O | 28.9 | 20.6 | 19.7 | 15.9 | 18.5 | 27.6 | 23.9 | 21 | […] | 22.5 |  |  |  |  |  |  |  | 
4 | Br/C(=N\Nc1nn[nH]n1)c1ccncc1 | > 100 | > 100 | > 100 | > 100 | > 100 | > 100 | > 100 | > 100 | > 100 | > 100 |  |  |  |  |  |  |  | 
5 | c1ccc(C[N+]23CN4CN(CN(C4)C2)C3)cc1 | 35.8 | 32.1 | > 100 | 60.9 | > 100 | > 100 | > 100 | > 100 | > 100 | 50 |  |  |  |  |  |  |  | 
6 | C=CCNS(=O)(=O)c1ncnc2nc[nH]c12 | > 100 | > 100 | > 100 | > 100 | > 100 | > 100 | > 100 | > 100 | > 100 | > 100 |  |  |  |  |  |  |  | 
7 | COc1cc(S(=O)(=O)Nc2nc(-c3ccc(N4C(=O)/C(=C/c5ccccc5[N+](=O)[O-])N=C4c4ccccc4)cc3)cs2)ccc1Cl | > 100 | 92.8 | > 100 | > 100 | > 100 | > 100 | > 100 | > 100 |  | > 100 |  |  |  |  |  |  |  | 
8 | SC1CCCN(Cc2ccccc2)C1 (centres undefined) | 33.7 | > 100 | > 100 | > 100 | > 100 | > 100 | > 100 | > 100 | > 100 | 35.4 |  |  |  |  |  |  |  | 
9 | Cn1c2c3ccc(Cl)cc3nc-2c(Cl)c2ccccc21 | 40.1 | 50.8 | 53.9 | 43.9 | 47.1 | 69.2 | 37.4 | > 100 | 90.2 | 42.7 |  |  |  |  |  |  |  | 
10 | CCCC(=O)O.CCCC(=O)O.CCCC(=O)O.CCCC(=O)O.[Rh].[Rh] | 0.0406 | 0.142 | 0.366 |  | 0.762 | 0.589 |  | 0.829 | 0.943 | 0.248 | 18.6 | 34.3 | 172 | 155 | 185 | 278 | 168 | 107
11 | CC(C)(C)OC(=O)NC1CCC(C(C)(C)C)CC1 (centres undefined) | > 100 | > 100 | > 100 | > 100 | > 100 | > 100 | > 61.8 | > 100 | > 100 | > 72.4 |  |  |  |  |  |  |  | 
12 | O=C(/C=C/c1ccccc1)N1CCCCC1 | > 100 | > 100 | > 100 | > 100 | > 100 | > 100 | > 100 | > 100 | > 100 | > 100 |  |  |  |  |  |  |  | 
13 | O=C(Oc1ccc(Cl)cc1[N+](=O)[O-])c1ccccc1 | > 100 | > 100 | > 100 | > 100 | > 100 |  | > 100 | > 100 | > 100 | 36.7 |  |  |  |  |  |  |  | 
